Results as given in article PMC7708426, “Identification of potential TNF-α inhibitors: from in silico to in vitro studies” (Scientific Reports, 2020).

Tested on: TNF-α
Assay: TNF-α inhibition in LPS-activated THP-1 cells (Human TNF-α ELISA of supernatants)
Assay type: cell-based
Details: PMA-differentiated THP-1 cells activated with 50 ng/mL LPS, 4 h, mean ± SEM of triplicate
Experimental: THP-1 cells (Human monocytic leukemia cells) were obtained from Biobank facility, ICCBS, University of Karachi, which was purchased from the ECACC (European Collection of Cell Cultures, UK). The cells were cultured in RPMI-1640, supplemented with 10% FBS (fetal bovine serum), 50 µmol/L mercaptoethanol (Merck, Damstadt, Germany), 5.5 mmol/L glucose (BioM Laboratories, Chemical Division, Malaysia), 2 mmol/L; L-glutamine (PAA Laboratories, GmbH, Pasching, Austria), 10 mmol/L HEPES (MP Biomedicals, lLLKIRCH, France) and 1 mmol/L sodium pyruvate (GIBCO, Grand Island, NY, USA). Cells were harvested and 2 × 10^5 cells/mL were then added to 24-well tissue culture plates. Differentiation of cells was performed by adding 20 ng/mL of phorbol myristate acetate (PMA) (SERVA, Heidelberg, Germany), and by incubation at 37 °C for 24 h in 5% CO2. […] The supernatants were analyzed for the level of TNF-α using Human TNF-α ELISA Kit (R&D Systems, Minneapolis, USA).
Briefly the working concentration of 4 μg/mL in PBS from 720 μg/mL of mouse anti-human TNF-α capture antibodies were used for coating of 96 well ELISA plate. […] The reaction was stopped by adding 50 μL of stop solution (2 N H2SO4) and plate was then read at wavelength of 450 nm in ELISA reader (ELX800 NB, DIA LAB, Wr. Neudrof, Austria).

With `CC(=O)CCCCn1c(=O)c2c(ncn2C)n(C)c1=O` [Pentoxifylline] the IC50 was 341 ± 7.54 µM.
